# From patent US4401604A, “Process for preparing thiosulfenamide derivatives of N-phosphonomethylglycine triesters” (Monsanto Company, priority 1981, dated 1983)
# What was measured:
# Assay in all cases: Pre-emergent herbicidal activity
# Type in all cases: in vivo
# Details in all cases: Table III; 11.2 kg/h; 2 WAT
# [1] = tested on: Cocklebur
# Summary of the method: (§1)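 Soil-incorporated test: seeds/propagules on compacted soil, covering layer admixed with compound at known active-ingredient amount; bottom watering via pan apertures; wet sand bench, ~2 wk, ordinary sunlight; emergence counted vs untreated control → activity index from average % control.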
# [2] = tested on: Quackgrass
# Summary of the method: as §1
# [3] = tested on: Johnsongrass
# Summary of the method: as §1
# [4] = tested on: Yellow Nutsedge
# Summary of the method: as §1
# [5] = tested on: Lambsquarters
# Summary of the method: as §1
# [6] = tested on: Smartweed
# Summary of the method: as §1
# [7] = tested on: Morningglory
# Summary of the method: as §1
# [8] = tested on: Canada Thistle
# Summary of the method: as §1
# [9] = tested on: Downy Brome
# Summary of the method: as §1
# [10] = tested on: Barnyardgrass
# Summary of the method: as §1
# [11] = tested on: Velvetleaf
# Summary of the method: as §1
compound,measurement,setting,value
"COC(=O)CN(CP(=O)(Oc1ccccc1)Oc1ccccc1)SSC(C)C [I, Glycine, N-[(diphenoxyphosphinyl)methyl]-N-[(1-methylethyl)dithio]-, methyl ester]",pre-emergent herbicidal activity index,[1],1 (25-49% control)
same,pre-emergent herbicidal activity index,[2],3 (75-100% control)
same,pre-emergent herbicidal activity index,[3],0 (0-24% control)
same,pre-emergent herbicidal activity index,[4],3 (75-100% control)
same,pre-emergent herbicidal activity index,[5],3 (75-100% control)
same,pre-emergent herbicidal activity index,[6],2 (50-74% control)
same,pre-emergent herbicidal activity index,[7],1 (25-49% control)
same,pre-emergent herbicidal activity index,[8],3 (75-100% control)
same,pre-emergent herbicidal activity index,[9],2 (50-74% control)
same,pre-emergent herbicidal activity index,[10],2 (50-74% control)
same,pre-emergent herbicidal activity index,[11],0 (0-24% control)
